The numbers were not newly measured in US6689302B2, “Method of making an antimicrobial tympanostomy tube” (Medtronic Xomed, Inc., priority 1993, dated 2004), which cites them from elsewhere.

The data set relates to postoperative otorrhea. Particulars: Baker and Chole trial; ophthalmic solution used as otic drops.

Regarding Gentamicin, the incidence of infection result is “significantly reduced”.
